Measured values from PubChem BioAssay AID1259407 (Chemical Carcinogenesis Research Information System (CCRIS), 2018).
Active and inactive are the calls of the source. How the calls were made is not given here.

Tested on: CCRIS mutagenicity, Ames/micronucleus/aberration tests
Experiment: CCRIS mutagenicity studies

## ClC=C(Cl)Cl
End Point: IN VITRO CHROMOSOMAL ABERRATIONS, Test System: CHINESE HAMSTER LUNG FIBROBLAST CELLS (CHL/IU), Metabolic Activation: NONE
  mutagenic call: inactive; negative
End Point: IN VITRO CHROMOSOMAL ABERRATIONS, Test System: CHINESE HAMSTER LUNG FIBROBLAST CELLS (CHL/IU), Metabolic Activation: RAT, LIVER, S-9, PHENOBARBITAL AND 5,6-BENZOFLAVONE
  mutagenic call: inactive; negative
End Point: IN VITRO CHROMOSOMAL ABERRATIONS, Test System: CHINESE HAMSTER OVARY CELLS, Metabolic Activation: NONE
  mutagenic call: inactive; negative; precipitation occurred at all doses
End Point: IN VITRO CHROMOSOMAL ABERRATIONS, Test System: CHINESE HAMSTER OVARY CELLS, Metabolic Activation: RAT, LIVER, S-9, AROCLOR 1254
  mutagenic call: inactive; negative; precipitation occurred at all doses
End Point: IN VITRO MICRONUCLEUS, Test System: V79 CELLS, Metabolic Activation: NONE
  mutagenic call: inactive; negative
End Point: IN VITRO MICRONUCLEUS, Test System: V79 CELLS, Metabolic Activation: RAT, LIVER, S-9, AROCLOR 1254
  mutagenic call: inactive; negative
Test System: AMES SALMONELLA TYPHIMURIUM, Strain/Indicator: TA97, Metabolic Activation: NONE, Method: STANDARD PLATE
  mutagenic call: active; positive
Test System: AMES SALMONELLA TYPHIMURIUM, Strain/Indicator: TA97, Metabolic Activation: RAT, LIVER, S-9, AROCLOR 1254, Method: STANDARD PLATE
  mutagenic call: active; positive
Test System: AMES SALMONELLA TYPHIMURIUM, Strain/Indicator: TA98, Metabolic Activation: HAMSTER, LIVER, S-9, AROCLOR 1254, Method: DESICCATOR
  mutagenic call: inactive; negative
Test System: AMES SALMONELLA TYPHIMURIUM, Strain/Indicator: TA98, Metabolic Activation: HAMSTER, LIVER, S-9, AROCLOR 1254, Method: PREINCUBATION
  mutagenic call: inactive; negative
Test System: AMES SALMONELLA TYPHIMURIUM, Strain/Indicator: TA98, Metabolic Activation: NONE, Method: DESICCATOR
  mutagenic call: inactive; negative
Test System: AMES SALMONELLA TYPHIMURIUM, Strain/Indicator: TA98, Metabolic Activation: NONE, Method: PREINCUBATION
  mutagenic call: inactive; negative
Test System: AMES SALMONELLA TYPHIMURIUM, Strain/Indicator: TA98, Metabolic Activation: NONE, Method: STANDARD PLATE
  mutagenic call: inactive; negative
Test System: AMES SALMONELLA TYPHIMURIUM, Strain/Indicator: TA98, Metabolic Activation: RAT, LIVER, S-9, AROCLOR 1254, Method: DESICCATOR
  mutagenic call: inactive; negative
Test System: AMES SALMONELLA TYPHIMURIUM, Strain/Indicator: TA98, Metabolic Activation: RAT, LIVER, S-9, AROCLOR 1254, Method: PREINCUBATION
  mutagenic call: inactive; negative
Test System: AMES SALMONELLA TYPHIMURIUM, Strain/Indicator: TA98, Metabolic Activation: RAT, LIVER, S-9, AROCLOR 1254, Method: STANDARD PLATE
  mutagenic call: active; positive
Test System: AMES SALMONELLA TYPHIMURIUM, Strain/Indicator: TA100, Metabolic Activation: HAMSTER, LIVER, S-9, AROCLOR 1254, Method: DESICCATOR
  mutagenic call: inactive; negative
Test System: AMES SALMONELLA TYPHIMURIUM, Strain/Indicator: TA100, Metabolic Activation: HAMSTER, LIVER, S-9, AROCLOR 1254, Method: PREINCUBATION
  mutagenic call: inactive; negative
Test System: AMES SALMONELLA TYPHIMURIUM, Strain/Indicator: TA100, Metabolic Activation: MOUSE, LIVER, S-9, AROCLOR 1254, Method: DESICCATOR
  mutagenic call: active; positive
Test System: AMES SALMONELLA TYPHIMURIUM, Strain/Indicator: TA100, Metabolic Activation: NONE, Method: DESICCATOR
  mutagenic call: inactive; negative
Test System: AMES SALMONELLA TYPHIMURIUM, Strain/Indicator: TA100, Metabolic Activation: NONE, Method: PREINCUBATION
  mutagenic call: inactive; negative
Test System: AMES SALMONELLA TYPHIMURIUM, Strain/Indicator: TA100, Metabolic Activation: NONE, Method: STANDARD PLATE
  mutagenic call: inactive; negative
Test System: AMES SALMONELLA TYPHIMURIUM, Strain/Indicator: TA100, Metabolic Activation: NONE, Method: VAPOR CHAMBER
  mutagenic call: inactive; negative
Test System: AMES SALMONELLA TYPHIMURIUM, Strain/Indicator: TA100, Metabolic Activation: RAT, LIVER, S-9, AROCLOR 1254, Method: DESICCATOR
  mutagenic call: inactive; negative
Test System: AMES SALMONELLA TYPHIMURIUM, Strain/Indicator: TA100, Metabolic Activation: RAT, LIVER, S-9, AROCLOR 1254, Method: PREINCUBATION
  mutagenic call: inactive; negative
Test System: AMES SALMONELLA TYPHIMURIUM, Strain/Indicator: TA100, Metabolic Activation: RAT, LIVER, S-9, AROCLOR 1254, Method: STANDARD PLATE
  mutagenic call: inactive; negative
Test System: AMES SALMONELLA TYPHIMURIUM, Strain/Indicator: TA102, Metabolic Activation: S-9, Method: STANDARD PLATE
  mutagenic call: inactive; negative
Test System: AMES SALMONELLA TYPHIMURIUM, Strain/Indicator: TA104, Metabolic Activation: NONE, Method: STANDARD PLATE
  mutagenic call: inactive; negative
Test System: AMES SALMONELLA TYPHIMURIUM, Strain/Indicator: TA104, Metabolic Activation: RAT, LIVER, S-9, AROCLOR 1254, Method: STANDARD PLATE
  mutagenic call: inactive; negative
Test System: AMES SALMONELLA TYPHIMURIUM, Strain/Indicator: TA1535, Metabolic Activation: HAMSTER, LIVER, S-9, AROCLOR 1254, Method: PREINCUBATION
  mutagenic call: inactive; negative
Test System: AMES SALMONELLA TYPHIMURIUM, Strain/Indicator: TA1535, Metabolic Activation: NONE, Method: DESICCATOR
  mutagenic call: active; positive
Test System: AMES SALMONELLA TYPHIMURIUM, Strain/Indicator: TA1535, Metabolic Activation: NONE, Method: PREINCUBATION
  mutagenic call: inactive; negative
Test System: AMES SALMONELLA TYPHIMURIUM, Strain/Indicator: TA1535, Metabolic Activation: NONE, Method: VAPOR CHAMBER
  mutagenic call: inactive; negative
Test System: AMES SALMONELLA TYPHIMURIUM, Strain/Indicator: TA1535, Metabolic Activation: RAT, LIVER, S-9, AROCLOR 1254, Method: DESICCATOR
  mutagenic call: active; positive
Test System: AMES SALMONELLA TYPHIMURIUM, Strain/Indicator: TA1535, Metabolic Activation: RAT, LIVER, S-9, AROCLOR 1254, Method: PREINCUBATION
  mutagenic call: inactive; negative
Test System: AMES SALMONELLA TYPHIMURIUM, Strain/Indicator: TA1537, Metabolic Activation: HAMSTER, LIVER, S-9, AROCLOR 1254, Method: PREINCUBATION
  mutagenic call: inactive; negative
Test System: AMES SALMONELLA TYPHIMURIUM, Strain/Indicator: TA1537, Metabolic Activation: NONE, Method: PREINCUBATION
  mutagenic call: inactive; negative
Test System: AMES SALMONELLA TYPHIMURIUM, Strain/Indicator: TA1537, Metabolic Activation: RAT, LIVER, S-9, AROCLOR 1254, Method: PREINCUBATION
  mutagenic call: inactive; negative
Test System: AMES SALMONELLA TYPHIMURIUM, Strain/Indicator: TA2638, Metabolic Activation: S-9, Method: STANDARD PLATE
  mutagenic call: inactive; negative
Test System: E. COLI, Strain/Indicator: WP2 (PKM101), Metabolic Activation: S-9, Method: STANDARD PLATE
  mutagenic call: inactive; negative
Test System: E. COLI, Strain/Indicator: WP2 UVRA (PKM101), Metabolic Activation: S-9, Method: STANDARD PLATE
  mutagenic call: inactive; negative
Test System: MOUSE LYMPHOMA, Strain/Indicator: L5178Y (TK+/TK-), Metabolic Activation: NONE, Method: SUSPENSION/PLATE
  mutagenic call: inactive; negative
Test System: MOUSE LYMPHOMA, Strain/Indicator: L5178Y (TK+/TK-), Metabolic Activation: RAT, LIVER, S-9, AROCLOR 1254, Method: SUSPENSION/PLATE
  mutagenic call: active; positive
